The values below are quoted from earlier work in patent EP1337618B1, “CLEANING TABLETS” (UNILEVER N.V., priority 2000, dated 2002).

Read-outs that look alike come from different tables or passages of the source. Where only a bound is given, the exact number is not on record here.

Where [1] appears, read: at 20°C, other common materials.

As to `O=BO[O-].[Na+]` [Sodium perborate anhydrous], the “Water Solubility” value under setting [1] is 3.7 g/100g. Take `O=P(O)(O)OP(=O)(O)OP(=O)(O)O` [Sodium tripolyphosphate anhydrous]: the “Water Solubility” value under setting [1] is given as 15 g/100g.

`NC(N)=O` [Urea]: the solubility in water entry (at 20°C) is recorded as “exceeding 100 gms per 100ml water”. Further, the “Water Solubility” value (deionised water at 20°C, highly water-soluble materials) is more than 100 g/100g.
